What was measured:
Assay type in all cases: in vivo, Wistar rats
[1] = system: STZ-induced diabetic rats; assay: Study No 1: body weight, food intake and water intake in STZ-induced diabetic rats; conditions: for AVERAGE WATER INTAKE: oral
Protocol: In this experiment 48 Wistar rats weighing 130-150 g of either sex were divided randomly into 8 groups consisting of 6 rats each. The study drugs suspended in vehicle [0.1% w/v suspension of Tween 80 and carboxymethylcellulose (CMC) in water] were administered for orally for 21 days. Group 1 (normal vehicle control) consisted of normal rats that neither received streptozotocin nor any test drug; Group 2 served as streptozotocin induced diabetic control (Diabetes was induced in rats by single administration of streptozotocin (60 mg/kg/i.p) dissolved in 0.1 M-citrate buffer, pH 4.5). Forty-eight hours later, blood samples were collected and glucose levels were determined to confirm the development of diabetes. […] Group 3 was diabetic rats treated with dose equivalent to human therapeutic dose of sitagliptin (STG) (11 mg/kg); Group 4 was diabetic rats treated with dose equivalent to human therapeutic dose of Hydroxychloroquine (HCQ) (46 mg/kg), Group 5 was diabetic rats treated with combination of HCQ 46 mg/kg and STG11 mg/kg; […] For other biochemical parameters i.e. […] Other parameters like body weight, food intake and water intake were evaluated weekly till day 21st.

[2] = system: STZ-induced diabetic rats; assay: Study No 1: blood glucose in STZ-induced diabetic rats (HCQ with sitagliptin)
Protocol: In this experiment 48 Wistar rats weighing 130-150 g of either sex were divided randomly into 8 groups consisting of 6 rats each. The study drugs suspended in vehicle [0.1% w/v suspension of Tween 80 and carboxymethylcellulose (CMC) in water] were administered for orally for 21 days. Group 1 (normal vehicle control) consisted of normal rats that neither received streptozotocin nor any test drug; Group 2 served as streptozotocin induced diabetic control (Diabetes was induced in rats by single administration of streptozotocin (60 mg/kg/i.p) dissolved in 0.1 M-citrate buffer, pH 4.5). Forty-eight hours later, blood samples were collected and glucose levels were determined to confirm the development of diabetes.
Blood glucose level was measured in normal and experimental rats at 1st, 7th, 14th and 21st day of administration. For other biochemical parameters i.e. Insulin, HbA1c, Triglycerides, Total Cholesterol, HDL, SGOT, SGPT, Total Protein, Albumin, Creatinine and Urea Blood samples were collected 1 h after the last dose administration from 18 h fasted rats through the retro-orbital plexus under chloroform anesthesia and analyzed using autoanalyzer (Microlab 2000). Other parameters like body weight, food intake and water intake were evaluated weekly till day 21st.

[3] = system: STZ-induced diabetic rats; assay: Study No 2: body weight, water intake and food intake in STZ-induced diabetic rats; conditions: for AVERAGE FOOD INTAKE / AVERAGE WATER INTAKE / Body Weight: oral
[4] = Day 0, HCQ 22.5, VG 6, SG 0.3 mg/kg alone, HCQ+VG 22.5+6, HCQ+SG 22.5+0.3 mg/kg/day
[5] = Day 0, HCQ 45, VG 12, SG 0.6 mg/kg alone, HCQ+VG 45+12, HCQ+SG 45+0.6 mg/kg/day
[6] = Day 7, HCQ 22.5, VG 6, SG 0.3 mg/kg alone, HCQ+VG 22.5+6, HCQ+SG 22.5+0.3 mg/kg/day
[7] = Day 7, HCQ 45, VG 12, SG 0.6 mg/kg alone, HCQ+VG 45+12, HCQ+SG 45+0.6 mg/kg/day
[8] = Day 14, HCQ 22.5, VG 6, SG 0.3 mg/kg alone, HCQ+VG 22.5+6, HCQ+SG 22.5+0.3 mg/kg/day
[9] = Day 14, HCQ 45, VG 12, SG 0.6 mg/kg alone, HCQ+VG 45+12, HCQ+SG 45+0.6 mg/kg/day
[10] = Day 21, HCQ 22.5, VG 6, SG 0.3 mg/kg alone, HCQ+VG 22.5+6, HCQ+SG 22.5+0.3 mg/kg/day
[11] = Day 21, HCQ 45, VG 12, SG 0.6 mg/kg alone, HCQ+VG 45+12, HCQ+SG 45+0.6 mg/kg/day
[12] = Day 28, HCQ 22.5, VG 6, SG 0.3 mg/kg alone, HCQ+VG 22.5+6, HCQ+SG 22.5+0.3 mg/kg/day
[13] = Day 28, HCQ 45, VG 12, SG 0.6 mg/kg alone, HCQ+VG 45+12, HCQ+SG 45+0.6 mg/kg/day

Structure (SMILES): CCN(CCO)CCCC(C)Nc1ccnc2cc(Cl)ccc12 (stereo not drawn) [HCQ, Hydroxychloroquine]
- AVERAGE FOOD INTAKE ([1]; Day 14, subtherapeutic dose: STG 5.5, HCQ 23, combination 5.5+23 mg/kg oral): 11.83 g
- Body Weight ([1]; Day 14, therapeutic dose: STG 11, HCQ 46, STG+HCQ 11+46 mg/kg oral): 142.67 ± 13.52 g
- AVERAGE FOOD INTAKE ([1]; Day 14, therapeutic dose: STG 11, HCQ 46, combination 11+46 mg/kg oral): 8.67 g
- AVERAGE WATER INTAKE ([1]; Day 21, Sub-The (subtherapeutic dose)): 31.83 mL
- AVERAGE WATER INTAKE ([1]; Day 21, The (therapeutic dose)): 28.83 mL
- Body Weight ([1]; Day 21, subtherapeutic dose: STG 5.5, HCQ 23, STG+HCQ 5.5+23 mg/kg oral): 137.00 ± 15.75 g
- AVERAGE FOOD INTAKE ([1]; Day 21, subtherapeutic dose: STG 5.5, HCQ 23, combination 5.5+23 mg/kg oral): 11.67 g
- AVERAGE FOOD INTAKE ([1]; Day 21, therapeutic dose: STG 11, HCQ 46, combination 11+46 mg/kg oral): 8.33 g
- Plasma glucose concentration ([2]; 1st day, subtherapeutic dose: STG 5.5, HCQ 23, STG+HCQ 5.5+23 mg/kg oral): 253.33 ± 24.86 mg/dL
- Plasma glucose concentration ([2]; 1st day, therapeutic dose: STG 11, HCQ 46, STG+HCQ 11+46 mg/kg oral): 267.83 ± 10.53 mg/dL
- Plasma glucose concentration ([2]; 7th day, subtherapeutic dose: STG 5.5, HCQ 23, STG+HCQ 5.5+23 mg/kg oral): 248.67 ± 24.63 mg/dL
- Plasma glucose concentration ([2]; 7th day, therapeutic dose: STG 11, HCQ 46, STG+HCQ 11+46 mg/kg oral): 243.83 ± 10.78 mg/dL
- Plasma glucose concentration ([2]; 14th day, subtherapeutic dose: STG 5.5, HCQ 23, STG+HCQ 5.5+23 mg/kg oral): 241.33 ± 24.73 mg/dL
- Plasma glucose concentration ([2]; 14th day, therapeutic dose: STG 11, HCQ 46, STG+HCQ 11+46 mg/kg oral, 46 mg/kg): 230.00 ± 12.96 mg/dL
- Plasma glucose concentration ([2]; 14th day, therapeutic dose: STG 11, HCQ 46, STG+HCQ 11+46 mg/kg oral, listed as hydroxychloroquine, 46 mg/kg): significant improvement
- Plasma glucose concentration ([2]; 21st day, subtherapeutic dose: STG 5.5, HCQ 23, STG+HCQ 5.5+23 mg/kg oral): 232.00 ± 19.92 mg/dL
- Plasma glucose concentration ([2]; 21st day, therapeutic dose: STG 11, HCQ 46, STG+HCQ 11+46 mg/kg oral): 207.67 ± 7.53 mg/dL
- AVERAGE FOOD INTAKE [3, 4]: 11.45 g
- AVERAGE WATER INTAKE [3, 4]: 25.05 mL
- Body Weight [3, 4]: 199.83 ± 17.7 g
- AVERAGE FOOD INTAKE [3, 5]: 11.67 g
- AVERAGE WATER INTAKE [3, 5]: 23.88 mL
- Body Weight [3, 5]: 198 ± 11.03 g
- AVERAGE FOOD INTAKE [3, 6]: 13.35 g
- AVERAGE WATER INTAKE [3, 6]: 24.11 mL
- Body Weight [3, 6]: 190.67 ± 11.41 g
- AVERAGE FOOD INTAKE [3, 7]: 13.39 g
- AVERAGE WATER INTAKE [3, 7]: 22.41 mL
- Body Weight [3, 7]: 184.17 ± 9.99 g
- AVERAGE FOOD INTAKE [3, 8]: 11.95 g
- AVERAGE WATER INTAKE [3, 8]: 23.29 mL
- Body Weight [3, 8]: 196.17 ± 10.93 g
- AVERAGE FOOD INTAKE [3, 9]: 12.05 g
- AVERAGE WATER INTAKE [3, 9]: 21.55 mL
- Body Weight [3, 9]: 190.67 ± 9.56 g
- AVERAGE FOOD INTAKE [3, 10]: 13.00 g
- AVERAGE WATER INTAKE [3, 10]: 26.34 mL
- Body Weight [3, 10]: 199.67 ± 10.52 g
- AVERAGE FOOD INTAKE [3, 11]: 12.75 g
- AVERAGE WATER INTAKE [3, 11]: 26.22 mL
- Body Weight [3, 11]: 194.67 ± 9.52 g
- AVERAGE FOOD INTAKE [3, 12]: 14.11 g
- AVERAGE WATER INTAKE [3, 12]: 25.44 mL
- Body Weight [3, 12]: 201.17 ± 8.7 g
- AVERAGE FOOD INTAKE [3, 13]: 14.00 g
- AVERAGE WATER INTAKE [3, 13]: 25.79 mL
- Body Weight [3, 13]: 198.17 ± 9.15 g
- body weight as compared to diabetic control group ([3]; monotherapies, p≦0.05): significant increase
